According to ChEMBL document CHEMBL2029240 (ACS Med Chem Lett, 2011):

Legend:
[1] = target: hERG (KCNH2) (Homo sapiens, UniProt Q12809); experiment: Inhibition of human ERG at 10 uM by patch clamp assay
[2] = target: Voltage-gated inwardly rectifying potassium channel KCNH2 (Homo sapiens, UniProt Q12809); experiment: Displacement of [3H]dofetilide from human ERG
[3] = target: T1, C-C chemokine receptor type 2 (Homo sapiens, UniProt P41597)
Description: Displacement of [125I]MCP1 from human CCR2 in PBMC after 30 mins by gamma counting

[4] = target: T1, C-C chemokine receptor type 2; experiment: Antagonist activity at CCR2 receptor in human whole blood assessed as inhibition of alexa-tagged MCP-induced effect 30 mins by flow cytometry; format: functional, tissue-based

T1 sequence (P41597 whole entry): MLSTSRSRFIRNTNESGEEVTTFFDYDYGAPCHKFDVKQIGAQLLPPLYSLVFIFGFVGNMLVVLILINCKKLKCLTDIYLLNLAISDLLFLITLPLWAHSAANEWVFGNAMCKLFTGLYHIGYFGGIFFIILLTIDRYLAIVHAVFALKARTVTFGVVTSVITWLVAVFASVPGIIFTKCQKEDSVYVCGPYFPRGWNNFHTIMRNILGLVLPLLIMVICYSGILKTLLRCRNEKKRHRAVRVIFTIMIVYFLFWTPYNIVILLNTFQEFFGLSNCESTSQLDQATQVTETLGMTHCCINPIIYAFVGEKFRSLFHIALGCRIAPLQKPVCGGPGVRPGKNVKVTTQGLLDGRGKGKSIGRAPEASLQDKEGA
Chain of Voltage-gated inwardly rectifying potassium channel KCNH2 (Q12809 whole entry): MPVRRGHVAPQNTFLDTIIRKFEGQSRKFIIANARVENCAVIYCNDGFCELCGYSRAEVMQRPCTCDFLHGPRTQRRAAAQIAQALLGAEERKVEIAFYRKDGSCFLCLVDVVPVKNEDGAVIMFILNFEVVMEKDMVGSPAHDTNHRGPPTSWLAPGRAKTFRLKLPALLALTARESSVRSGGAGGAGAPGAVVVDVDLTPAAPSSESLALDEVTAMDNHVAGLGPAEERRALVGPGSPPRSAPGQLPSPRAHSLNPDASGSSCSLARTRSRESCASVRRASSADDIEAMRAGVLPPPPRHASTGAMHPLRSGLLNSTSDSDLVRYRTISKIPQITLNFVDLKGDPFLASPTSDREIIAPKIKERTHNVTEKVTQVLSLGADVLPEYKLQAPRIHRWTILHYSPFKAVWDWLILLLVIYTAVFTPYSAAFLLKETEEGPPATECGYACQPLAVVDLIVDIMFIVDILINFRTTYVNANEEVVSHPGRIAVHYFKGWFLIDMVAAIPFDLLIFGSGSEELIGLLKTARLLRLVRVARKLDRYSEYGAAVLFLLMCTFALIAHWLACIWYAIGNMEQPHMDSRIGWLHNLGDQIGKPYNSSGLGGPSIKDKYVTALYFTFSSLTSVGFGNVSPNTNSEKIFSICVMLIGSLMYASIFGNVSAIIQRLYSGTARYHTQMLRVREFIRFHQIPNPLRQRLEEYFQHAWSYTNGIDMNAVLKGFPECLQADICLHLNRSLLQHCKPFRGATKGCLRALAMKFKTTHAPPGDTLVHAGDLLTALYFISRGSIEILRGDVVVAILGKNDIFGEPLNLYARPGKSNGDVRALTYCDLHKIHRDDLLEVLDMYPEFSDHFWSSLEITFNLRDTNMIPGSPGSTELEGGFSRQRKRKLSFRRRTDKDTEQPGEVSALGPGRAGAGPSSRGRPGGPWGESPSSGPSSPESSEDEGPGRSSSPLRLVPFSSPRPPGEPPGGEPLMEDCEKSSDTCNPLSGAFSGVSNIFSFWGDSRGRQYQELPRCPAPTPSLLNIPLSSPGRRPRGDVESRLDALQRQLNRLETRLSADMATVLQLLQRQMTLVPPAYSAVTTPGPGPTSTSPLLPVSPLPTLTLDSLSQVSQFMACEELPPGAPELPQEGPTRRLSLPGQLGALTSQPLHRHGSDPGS
Chain of hERG (KCNH2) (Q12809 whole entry): as above

| Structure (SMILES) | IC50 [3] | IC50 [4] | inhibition at 10 µM [1] | IC50 [2] |
| --- | --- | --- | --- | --- |
| O=C(NCC(=O)N1CC[C@H](N[C@H]2CC[C@@](O)(c3ccc(-c4cnccn4)cn3)CC2)C1)c1cccc(C(F)(F)F)c1 |  |  | 70% | > 30000 nM |
| O=C(NCC(=O)N1CC[C@H](N[C@H]2CC[C@@](O)(c3ccc(-c4nccs4)cn3)CC2)C1)c1cccc(C(F)(F)F)c1 |  |  | 85% | > 30000 nM |
| O=C(C1CCN(c2cccc(C(F)(F)F)n2)CC1)N1CC[C@H](N[C@H]2CC[C@@](O)(c3ccc(-c4ncccn4)cn3)CC2)C1 | 4.5 nM | 88 nM |  |  |

The next lines start with results.

| IC50 [3] | IC50 [4] | Structure (SMILES) | inhibition at 10 µM [1] | IC50 [2] |
| --- | --- | --- | --- | --- |
| 3.6 nM | 37 nM | O=C(C1CCN(c2cccc(C(F)(F)F)c2)CC1)N1CC[C@H](N[C@H]2CC[C@@](O)(c3ccc(-c4ncccn4)cn3)CC2)C1 |  | 9000 nM |
| 3.3 nM | 12 nM | O=C(C1CCN(c2cc(C(F)(F)F)ccn2)CC1)N1CC[C@H](N[C@H]2CC[C@@](O)(c3ccc(-c4ncccn4)cn3)CC2)C1 |  | 28000 nM |
